# Experimental data reported in patent US20110028504A1, “Formulation of radioprotective alpha beta unsaturated aryl sulfones” (ONCONOVA THERAPEUTICS, INC., priority 2005, published 2011).
# Columns and labels:
# Assay type in all cases: physicochemical
# [1] = Determination of pKa from saturated solubility at different pH
# Description: The pKa of the weakly acidic drug is determined from pH-solubility data using the equation provided below.
# Where Cs=observed solubility and C0=intrinsic solubility of the compound,
# Since the drug is weakly acidic, its intrinsic solubility is assumed to be the solubility at a very low pH (pH=4) where the contribution due to ionization is minimal.
# [2] = pH solubility testing in McIlvaine type buffer; conditions: thermodynamic from solid, read-out: Observed Solubility (C5)
# Description: The solubility of ON.1210.Na salt is tested in McIlvaine type buffer with 0.1 M ionic strength. The buffers are prepared using the recipe mentioned in Table 17 The final pH is adjusted using 0.1N sodium hydroxide or 0.1N hydrochloric acid until the pH is within ±0.1 pH units of the target pH. The pKa of the drug calculated from pH-solubility study is depicted in Table 19. The solubility of the ON.1210.Na salt is tested in a McIlvaine type buffer with 0.1 M ionic strength. The buffers are prepared using the recipe mentioned in Table 16 using various volumes of 0.15 M citric acid monohydrate, and 0.2 M sodium phosphate dibasic, 12 hydrate. The final pH is adjusted using 0.1N sodium hydroxide or 0.1N hydrochloric acid until the pH is within ±0.1 pH units of the target pH. The samples for the pH solubility study are prepared by adding 10-20 mg of ON.1210.Na salt to a 4 mL vial. Then 1 mL of the appropriate pH buffer is added to the vial. The solution is mixed on a vortex genie for approximately 30 seconds. If the solution looks clear, additional drug is added. No additional drug is added to solutions which appear to be clear at a concentration of greater than 50 mg/mL. The study is done in duplicate. Once the solutions are prepared, the initial pH of the samples are measured. The solutions are then protected from light, and placed on a shaker. The solutions are agitated for 24 to 96 hours at ambient conditions. The vials are then removed from the orbital shaker, and the final pH of the solutions is measured for each sample. The solutions are then filtered, and analyzed by HPLC.
# [3] = Forced degradation studies (HPLC)
# Description: In order to establish the specificity of this assay procedure several forced degradation studies were conducted as follows:
# The ON.1210.Na sample is prepared in HPLC grade water at a concentration of 200 μg/mL. All the peaks detected in the chromatogram at time zero are noted with their corresponding retention time and absolute peak areas. The solution is crimped into a 5 mL glass vial and autoclaved. After autoclaving, the sample is filtered through a 0.1μ filter and 20 μL of the filtered sample is analyzed. The absolute peak area of the peak after autoclaving and appearance of any additional peaks due to possible degradation is shown in Table 9.
# One ml of the 500 μg/mL standard solution is mixed with 1 mL of 0.1 N HCl. The sample is cloudy in appearance and filtered prior to HPLC analysis. All the peaks detected in the chromatogram at time zero are noted with their corresponding retention time and absolute peak areas. The solution is crimped into a 5 mL glass vial and autoclaved. After autoclaving, the sample is filtered through a 0.1μ filter and […] of the filtered sample is analyzed by HPLC. The absolute peak areas of the peak after autoclaving, and appearance of any other peaks due to possible degradation are noted.
# One ml of the 500 μg/mL standard solution is mixed with 1 mL of 0.1 N NaOH. The sample is clear in appearance. All the peaks detected in the chromatogram at time zero are noted with their corresponding retention time and absolute peak area. The solution is crimped into a 5 mL glass vial and autoclaved. After autoclaving, the sample is filtered through a 0.1μ filter and 20 μL of the filtered sample is analyzed. The absolute peak area of the peaks after autoclaving and appearance of any other peaks due to possible degradation are noted.
# A solid drug sample (ON1210), after autoclaving in a crimped vial, is also evaluated for any degradation using the developed HPLC method. The sample, after autoclaving, is used to make a standard solution of 400 μg/mL and injected onto HPLC.
# In this study, 30% of the hydrogen peroxide is diluted to 3% (v/v) with water. One ml of the 500 μg/mL standard solution is mixed with 1 mL of 3% hydrogen peroxide; then incubated at 50° C. over a period of two hours. All the peaks detected in the chromatogram at different time points are noted with their corresponding retention time and absolute peak areas. The chromatograms are run for 30 minute periods.
# [4] = Solid-state stability at 75° C.
# Description: The stability of ON.1210.Na in the solid state is determined by exposing the drug at 75° C. over a prolonged time. The sample is crimped in a 10 mL injection vial and kept at the above temperature. The sample is collected after 15 days and one month and reconstituted with diluting solution and its concentration is determined by HPLC. Appearance of any additional peak in the chromatogram is also noted. A control sample is represented by ON.1210.Na not exposed to 75° C. and reconstituted to a known concentration with diluting solution.
structure (smiles),measurement,setting,value
"O=C([O-])c1ccc(/C=C/S(=O)(=O)Cc2ccc(Cl)cc2)cc1.[Na+] [ON.1210.Na, (E)-4-Carboxystyryl-4-chlorobenzylsulfone, Sodium Salt]",Solubility,"[1]; aqueous buffer, thermodynamic from solid, assumed to be the solubility at pH 4, read-out: intrinsic solubility",0.154 µg/mL
same,pKa,[1]; calculated from solubility at pH 5,2.61
same,pKa,[1]; calculated from solubility at pH 6,2.33
same,pKa,[1]; calculated from solubility at pH 7.4,2.54
same,pKa,[1]; calculated from solubility at pH 8,2.96
same,pKa,[1]; calculated from solubility at pH 9,3.82
same,Solubility,"[2]; pH 4, aqueous buffer",0.154 µg/mL
same,Solubility,"[2]; pH 5, aqueous buffer",37.9 µg/mL
same,Solubility,"[2]; pH 6, aqueous buffer",715 µg/mL
same,Solubility,"[2]; pH 7.4, aqueous buffer",11100 µg/mL
same,Solubility,"[2]; pH 8, aqueous buffer",16800 µg/mL
same,Solubility,"[2]; pH 9, aqueous buffer",23300 µg/mL
same,stability of the aqueous solution on autoclaving,[3]; 200 μg/mL in water,stable under autoclaving conditions
same,degradation under alkaline condition,"[3]; 0.05N NaOH, autoclaving",Significantly more degradation is present under alkaline condition
same,degradation upon autoclaving,[3]; in presence of strong acid (0.05N HCl),less than 10%
same,stability of the solid on autoclaving,"[3]; solid drug autoclaved in a crimped vial, then 400 μg/mL by HPLC",stable under the autoclaving conditions
same,accelerated solid-state stability of the bulk drug substance,[4],no evidence of degradation
